Data reported in PubChem BioAssay (NCI).
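Dose response: 5 concentrations. Exposure: 48 h. Format: 96-well plates. Endpoint: linear interpolation; highest concentration if not reached. TGI: concentration producing complete growth inhibition.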

What was measured:
Assay in all cases: NCI tumour cell line growth inhibition, 48 h
MDA-N = system: MDA-N
HCT-15 colon = system: HCT-15 colon
RXF 393 renal = system: RXF 393 renal
OVCAR-4 ovarian = system: OVCAR-4 ovarian
K-562 leukemia = system: K-562 leukemia
HOP-92 NSCLC = system: HOP-92 NSCLC
NCI-H460 lung = system: NCI-H460 lung
SF-295 CNS = system: SF-295 CNS
OVCAR-5 ovarian = system: OVCAR-5 ovarian
A549 NSCLC = system: A549 NSCLC
LOX IMVI melanoma = system: LOX IMVI melanoma
TK-10 renal = system: TK-10 renal
DU-145 prostate = system: DU-145 prostate
HCT-116 colon = system: HCT-116 colon
MCF7 breast = system: MCF7 breast
CCRF-CEM leukemia = system: CCRF-CEM leukemia
CAKI-1 renal = system: CAKI-1 renal
OVCAR-8 ovarian = system: OVCAR-8 ovarian
HL-60(TB) leukemia = system: HL-60(TB) leukemia
HCC-2998 colon = system: HCC-2998 colon
PC-3 prostate = system: PC-3 prostate
BT-549 breast = system: BT-549 breast
MDA-MB-231 breast = system: MDA-MB-231 breast
U251 CNS = system: U251 CNS
MOLT-4 leukemia = system: MOLT-4 leukemia
NCI/ADR-RES ovarian = system: NCI/ADR-RES ovarian
NCI-H226 lung = system: NCI-H226 lung
HS 578T breast = system: HS 578T breast
COLO 205 colon = system: COLO 205 colon
ACHN renal = system: ACHN renal
NCI-H23 lung = system: NCI-H23 lung
SN12C renal = system: SN12C renal
SK-OV-3 ovarian = system: SK-OV-3 ovarian
KM12 colon = system: KM12 colon
SR leukemia = system: SR leukemia
RPMI-8226 leukemia = system: RPMI-8226 leukemia
UO-31 renal = system: UO-31 renal
IGROV1 ovarian = system: IGROV1 ovarian
HOP-62 NSCLC = system: HOP-62 NSCLC
SW-620 colon = system: SW-620 colon
MALME-3M melanoma = system: MALME-3M melanoma
SF-539 CNS = system: SF-539 CNS
SNB-19 CNS = system: SNB-19 CNS
SF-268 CNS = system: SF-268 CNS
786-0 renal = system: 786-0 renal
UACC-62 melanoma = system: UACC-62 melanoma
SK-MEL-5 melanoma = system: SK-MEL-5 melanoma
M14 melanoma = system: M14 melanoma
UACC-257 melanoma = system: UACC-257 melanoma
NCI-H522 lung = system: NCI-H522 lung
OVCAR-3 ovarian = system: OVCAR-3 ovarian
HT29 colon = system: HT29 colon
MDA-MB-435 = system: MDA-MB-435
T-47D breast = system: T-47D breast
EKVX NSCLC = system: EKVX NSCLC
SK-MEL-28 melanoma = system: SK-MEL-28 melanoma
SNB-75 CNS = system: SNB-75 CNS
SK-MEL-2 melanoma = system: SK-MEL-2 melanoma
A498 renal = system: A498 renal

## Cc1ccc(NC(=O)C23CC4CC(CC(C4)C2)C3)c(C(=O)NNC(=O)c2ccc(Cl)cc2)c1
MDA-N
  TGI: 52.1 µM
HCT-15 colon
  TGI: 35.7 µM
RXF 393 renal
  TGI: 39.8 µM
OVCAR-4 ovarian
  TGI: 65.8 µM
K-562 leukemia
  TGI: 95 µM
HOP-92 NSCLC
  TGI: 33.5 µM
NCI-H460 lung
  TGI: 69.2 µM
SF-295 CNS
  TGI: 66.5 µM
OVCAR-5 ovarian
  TGI: 61.3 µM
A549 NSCLC
  TGI: 46 µM
LOX IMVI melanoma
  TGI: 35.3 µM
TK-10 renal
  TGI: 41.5 µM
DU-145 prostate
  TGI: > 100 µM
HCT-116 colon
  TGI: > 100 µM
MCF7 breast
  TGI: 59.7 µM
CCRF-CEM leukemia
  TGI: 55.2 µM
CAKI-1 renal
  TGI: 73.8 µM
OVCAR-8 ovarian
  TGI: > 100 µM
HL-60(TB) leukemia
  TGI: 55.5 µM
HCC-2998 colon
  TGI: 30.2 µM
PC-3 prostate
  TGI: 69.5 µM
BT-549 breast
  TGI: > 100 µM
MDA-MB-231 breast
  TGI: 50.3 µM
U251 CNS
  TGI: 37.1 µM
MOLT-4 leukemia
  TGI: 62.3 µM
NCI/ADR-RES ovarian
  TGI: 61.1 µM
NCI-H226 lung
  TGI: 62.6 µM
HS 578T breast
  TGI: 33.8 µM
COLO 205 colon
  TGI: > 100 µM
ACHN renal
  TGI: 37.8 µM
NCI-H23 lung
  TGI: 38.8 µM
SN12C renal
  TGI: > 100 µM
SK-OV-3 ovarian
  TGI: 39 µM
KM12 colon
  TGI: 90.9 µM
SR leukemia
  TGI: 30.1 µM
RPMI-8226 leukemia
  TGI: 41.5 µM
UO-31 renal
  TGI: 37 µM
IGROV1 ovarian
  TGI: 18.2 µM
HOP-62 NSCLC
  TGI: 49.6 µM
SW-620 colon
  TGI: > 100 µM
MALME-3M melanoma
  TGI: 59.4 µM
SF-539 CNS
  TGI: 49.5 µM
SNB-19 CNS
  TGI: 8.91 µM
SF-268 CNS
  TGI: > 100 µM
786-0 renal
  TGI: 59 µM
UACC-62 melanoma
  TGI: 53.2 µM
SK-MEL-5 melanoma
  TGI: 42.6 µM
M14 melanoma
  TGI: > 100 µM
UACC-257 melanoma
  TGI: 9.53 µM
NCI-H522 lung
  TGI: 30.4 µM
OVCAR-3 ovarian
  TGI: 66.9 µM
HT29 colon
  TGI: 72.9 µM
MDA-MB-435
  TGI: 37.4 µM
T-47D breast
  TGI: > 100 µM
EKVX NSCLC
  TGI: 68 µM

## COc1ccc(C(=O)O[C@@H]2CCN3CC[C@H](C)[C@H]23)cc1
MDA-N
  TGI: > 100 µM
HCT-15 colon
  TGI: > 100 µM
RXF 393 renal
  TGI: > 100 µM
HOP-92 NSCLC
  TGI: > 100 µM
NCI-H460 lung
  TGI: > 100 µM
SF-295 CNS
  TGI: > 100 µM
OVCAR-5 ovarian
  TGI: > 100 µM
A549 NSCLC
  TGI: > 100 µM
LOX IMVI melanoma
  TGI: > 100 µM
TK-10 renal
  TGI: > 100 µM
DU-145 prostate
  TGI: > 100 µM
HCT-116 colon
  TGI: > 100 µM
MCF7 breast
  TGI: > 100 µM
CAKI-1 renal
  TGI: > 100 µM
OVCAR-8 ovarian
  TGI: > 100 µM
HL-60(TB) leukemia
  TGI: > 100 µM
PC-3 prostate
  TGI: > 100 µM
BT-549 breast
  TGI: > 100 µM
MDA-MB-231 breast
  TGI: > 100 µM
SK-MEL-28 melanoma
  TGI: > 100 µM
U251 CNS
  TGI: > 100 µM
MOLT-4 leukemia
  TGI: > 100 µM
SNB-75 CNS
  TGI: > 100 µM
NCI/ADR-RES ovarian
  TGI: > 100 µM
NCI-H226 lung
  TGI: > 100 µM
HS 578T breast
  TGI: > 100 µM
COLO 205 colon
  TGI: > 100 µM
ACHN renal
  TGI: > 100 µM
NCI-H23 lung
  TGI: > 100 µM
SN12C renal
  TGI: > 100 µM
SK-MEL-2 melanoma
  TGI: > 100 µM
SK-OV-3 ovarian
  TGI: > 100 µM
KM12 colon
  TGI: > 100 µM
SR leukemia
  TGI: > 100 µM
RPMI-8226 leukemia
  TGI: > 100 µM
UO-31 renal
  TGI: > 100 µM
IGROV1 ovarian
  TGI: > 100 µM
HOP-62 NSCLC
  TGI: > 100 µM
SW-620 colon
  TGI: > 100 µM
SF-539 CNS
  TGI: > 100 µM
SNB-19 CNS
  TGI: > 100 µM
SF-268 CNS
  TGI: > 100 µM
786-0 renal
  TGI: > 100 µM
UACC-62 melanoma
  TGI: > 100 µM
SK-MEL-5 melanoma
  TGI: > 100 µM
M14 melanoma
  TGI: > 100 µM
A498 renal
  TGI: > 100 µM
UACC-257 melanoma
  TGI: > 100 µM
NCI-H522 lung
  TGI: > 100 µM
OVCAR-3 ovarian
  TGI: > 100 µM
HT29 colon
  TGI: > 100 µM
MDA-MB-435
  TGI: > 100 µM
T-47D breast
  TGI: > 100 µM
EKVX NSCLC
  TGI: > 100 µM

## Cc1nn(C(=O)c2ccc(Cl)cc2)c2c1C(c1ccccc1)SC(N)=N2 (stereo unspecified)
MDA-N
  TGI: > 10 µM
HCT-15 colon
  TGI: > 10 µM
RXF 393 renal
  TGI: > 10 µM
OVCAR-4 ovarian
  TGI: > 10 µM
K-562 leukemia
  TGI: > 10 µM
HOP-92 NSCLC
  TGI: > 10 µM
NCI-H460 lung
  TGI: > 10 µM
SF-295 CNS
  TGI: > 10 µM
OVCAR-5 ovarian
  TGI: > 10 µM
A549 NSCLC
  TGI: > 10 µM
LOX IMVI melanoma
  TGI: > 10 µM
TK-10 renal
  TGI: > 10 µM
DU-145 prostate
  TGI: > 10 µM
HCT-116 colon
  TGI: > 10 µM
MCF7 breast
  TGI: > 10 µM
CCRF-CEM leukemia
  TGI: > 10 µM
CAKI-1 renal
  TGI: > 10 µM
OVCAR-8 ovarian
  TGI: > 10 µM
HL-60(TB) leukemia
  TGI: > 10 µM
HCC-2998 colon
  TGI: > 10 µM
PC-3 prostate
  TGI: > 10 µM
BT-549 breast
  TGI: > 10 µM
MDA-MB-231 breast
  TGI: > 10 µM
SK-MEL-28 melanoma
  TGI: > 10 µM
U251 CNS
  TGI: > 10 µM
MOLT-4 leukemia
  TGI: > 10 µM
SNB-75 CNS
  TGI: > 10 µM
NCI/ADR-RES ovarian
  TGI: > 10 µM
NCI-H226 lung
  TGI: > 10 µM
HS 578T breast
  TGI: > 10 µM
COLO 205 colon
  TGI: > 10 µM
ACHN renal
  TGI: > 10 µM
NCI-H23 lung
  TGI: > 10 µM
SN12C renal
  TGI: > 10 µM
SK-MEL-2 melanoma
  TGI: > 10 µM
SK-OV-3 ovarian
  TGI: > 10 µM
KM12 colon
  TGI: > 10 µM
SR leukemia
  TGI: > 10 µM
RPMI-8226 leukemia
  TGI: > 10 µM
IGROV1 ovarian
  TGI: > 10 µM
HOP-62 NSCLC
  TGI: > 10 µM
SW-620 colon
  TGI: > 10 µM
MALME-3M melanoma
  TGI: > 10 µM
SF-539 CNS
  TGI: > 10 µM
SNB-19 CNS
  TGI: > 10 µM
SF-268 CNS
  TGI: > 10 µM
786-0 renal
  TGI: > 10 µM
UACC-62 melanoma
  TGI: > 10 µM
SK-MEL-5 melanoma
  TGI: > 10 µM
M14 melanoma
  TGI: > 10 µM
UACC-257 melanoma
  TGI: > 10 µM
NCI-H522 lung
  TGI: > 10 µM
OVCAR-3 ovarian
  TGI: > 10 µM
HT29 colon
  TGI: > 10 µM
MDA-MB-435
  TGI: > 10 µM
T-47D breast
  TGI: > 10 µM
EKVX NSCLC
  TGI: > 10 µM
